Measured values taken from patent US20230278972A1, “SUBSTITUTED HALOALKYL SULFONANILIDE HERBICIDES” (FMC Corporation, priority 2020, published 2023).

Key:
Type in all cases: in vivo
rice (Oryza sativa) = assay: Test B1 flooded paddy test, rice; settings: 250 g ai/ha, Flood, applied to paddy water, 2-leaf stage, visually evaluated after 10 to 14 days
Excerpt: A dash (-) response means no test result.

[1] = test system: Foxtail, Giant (giant foxtail, Setaria faberi); assay: Test A1 postemergence, Foxtail, Giant; settings: for Foxtail, Giant plant response rating: postemergence; for Plant response rating, Foxtail, Giant: Postemergence
Procedure, shortened: (§1)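 Plants grown in pots of loam/sand mix; preemergence = soil-directed spray on seeded pots, postemergence = spray at 1–2 leaves, height 2–10 cm; test chemicals formulated in non-phytotoxic solvent with surfactant.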

kochia (Bassia scoparia) = assay: Test A1 preemergence, kochia
Procedure, shortened: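 Seeds were first planted into a blend of loam soil and sand and given a preemergence directed soil spray. In parallel, pots of the same soil were sown for postemergence application once plants reached 2 to 10 cm and the one- to two-leaf stage. Both used surfactant-containing non-phytotoxic solvent formulations.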

[2] = test system: ragweed (common ragweed, Ambrosia artemisiifolia); assay: Test A1 postemergence, ragweed; settings: for Ragweed plant response rating: postemergence; for Plant response rating, Ragweed: Postemergence
Procedure, shortened: as §1

[3] = test system: goosegrass (Eleusine indica); assay: Test A1 postemergence, goosegrass; settings: for Goosegrass plant response rating: postemergence; for Plant response rating, Goosegrass: Postemergence
Procedure, shortened: as §1

[4] = 31 g ai/ha, 0 to 100 scale (0 no effect, 100 complete control)
[5] = 125 g ai/ha, 0 to 100 scale, 0 no effect, 100 complete control
[6] = 125 g ai/ha, 0 to 100 scale (0 no effect, 100 complete control), 10 days
[7] = 125 g ai/ha, 0 to 100 scale (0 no effect, 100 complete control)
[8] = 31 g ai/ha, 0 to 100 scale (0 no effect, 100 complete control), 10 days

| Compound | Plant response rating, Rice (0 to 100 scale, 0 is no effect, 100 is complete control) (rice (Oryza sativa)) | Foxtail, Giant plant response rating [1, 4] | Plant response rating, Foxtail, Giant ([1]; 125 g ai/ha, 0 to 100 scale) | Plant response rating, Kochia (kochia (Bassia scoparia); [4]) | Plant response rating, Kochia (kochia (Bassia scoparia); [5]) | Ragweed plant response rating [2, 4] | Plant response rating, Ragweed ([2]; 125 g ai/ha, 0 to 100 scale) | Goosegrass plant response rating [3, 4] | Plant response rating, Goosegrass ([3]; 125 g ai/ha, 0 to 100 scale) | Plant response rating, Foxtail, Giant [1, 6] | Plant response rating, Ragweed [2, 6] | Plant response rating, Goosegrass [3, 6] | Plant response rating, Foxtail, Giant ([1]; 500 g ai/ha, 0 to 100 scale) | Plant response rating, Kochia (kochia (Bassia scoparia); 500 g ai/ha, 0 to 100 scale (0 no effect, 100 complete control)) | Plant response rating, Ragweed ([2]; 500 g ai/ha, 0 to 100 scale) | Plant response rating, Goosegrass ([3]; 500 g ai/ha, 0 to 100 scale) | Plant response rating, Kochia (kochia (Bassia scoparia); [7]) | Plant response rating, Foxtail, Giant [1, 8] | Plant response rating, Ragweed [2, 8] | Plant response rating, Goosegrass [3, 8] |
| --- | --- | --- | --- | --- | --- | --- | --- | --- | --- | --- | --- | --- | --- | --- | --- | --- | --- | --- | --- | --- |
| CCOC(=O)N(c1cc(C2=NOC3CCCC23)c(CC)cc1C)S(=O)(=O)C(F)(F)F (stereo not drawn) [Compound 379] | 0 | 0 | 10 | 0 | 10 | 20 | 40 | 10 | 60 | – | – | – | – | – | – | – | – | – | – | – |
| Cc1cc(Cl)c(NS(=O)(=O)C(F)(F)F)cc1N1CC2(CCCCC2)OC1=O [Compound 394] | 0 | 0 | – | 30 | 60 | 90 | – | 0 | – | 50 | 90 | 30 | – | – | – | – | – | – | – | – |
| Cc1cc(C)c(N(COC(=O)C(C)(C)C)S(=O)(=O)C(F)(F)F)cc1N1CCC2(CCC(F)(F)CC2)C1=O [Compound 397] | 0 | – | – | – | 90 | – | – | – | – | 20 | 80 | 90 | 70 | 100 | 80 | 90 | – | – | – | – |
| CCOc1cccc2c1C(=O)N(c1cc(N(COC(=O)C(C)(C)C)S(=O)(=O)Cl)c(C)cc1C)C2 [Compound 414] | 0 | 0 | – | 20 | – | 40 | – | 0 | – | 0 | 70 | 0 | – | – | – | – | 80 | – | – | – |
| Cc1cc(C)c(C2=NOC(C(C)C)C2)cc1NS(=O)(=O)C(F)(F)F (stereo not drawn) [Compound 381] | 0 | 0 | – | 0 | 60 | 0 | – | 0 | – | 50 | 50 | 50 | – | – | – | – | – | – | – | – |
| Cc1cc(C)c(N(S(=O)(=O)C(F)(F)F)S(=O)(=O)C(F)(F)F)cc1N1CCC2(CCC(C(F)(F)F)CC2)C1=O (stereo not drawn) [Compound 399] | 0 | 10 | – | 0 | 50 | 50 | – | 40 | – | 60 | 90 | 90 | – | – | – | – | – | – | – | – |
| Cc1c(NS(=O)(=O)C(F)(F)F)cc(C2=NOC3(CCCC3)C2)c(C)c1C [Compound 380] | 10 | 10 | – | 0 | 60 | 40 | – | 0 | – | 80 | 60 | 30 | – | – | – | – | – | – | – | – |
| Cc1cc(Cl)c(NS(=O)(=O)C(F)(F)F)cc1N1CCC2(CCCCC2)C1=O [Compound 393] | 0 | 0 | – | 60 | 80 | 60 | – | 0 | – | 40 | 70 | 70 | – | – | – | – | – | – | – | – |
| Cc1cc(C)c(N(COC(=O)C(C)(C)C)S(=O)(=O)C(F)(F)F)cc1N1CCC2(CCC(C(F)(F)F)CC2)C1=O (stereo not drawn) [Compound 403] | 0 | 0 | – | 0 | 0 | 0 | – | 0 | – | 0 | 50 | 50 | – | – | – | – | – | – | – | – |
| Cc1cc(C)c(N2Cc3cccc(Br)c3C2=O)cc1NS(=O)(=O)Cl [Compound 415] | 10 | 0 | – | 10 | – | 30 | – | 70 | – | 30 | 70 | 90 | – | – | – | – | 60 | – | – | – |
| Cc1ccc(C2=NOC3CCCC23)cc1NS(=O)(=O)C(F)(F)F (stereo not drawn) [Compound 377] | 0 | 0 | 0 | 0 | 20 | 20 | 30 | 0 | 0 | – | – | – | – | – | – | – | – | – | – | – |
| COC1CCC2(CC1)CCN(c1cc(NS(=O)(=O)C(F)(F)F)c(C)cc1C)C2=O (stereo not drawn) [Compound 398] | 30 | 20 | – | 40 | 50 | 20 | – | 50 | – | 60 | 80 | 90 | – | – | – | – | – | – | – | – |
| CCOC(=O)N(c1cc(C(=O)N2CCSCC2)c(C)c(C)c1C)S(=O)(=O)C(F)(F)F [Compound 286] | 0 | – | 80 | 0 | 80 | – | 40 | – | 40 | – | – | – | – | – | – | – | – | 80 | 0 | 0 |
| Cc1c(C(=O)N2CCSCC2)cc(N(COC(=O)C(C)(C)C)S(=O)(=O)C(F)(F)F)c(C)c1C [Compound 285] | 0 | – | 80 | 20 | 70 | – | 90 | – | 50 | – | – | – | – | – | – | – | – | 30 | 20 | 0 |
| Cc1c(C2=NOC3(CCCC3)C2)cc(N(COC(=O)C(C)(C)C)S(=O)(=O)C(F)(F)F)c(C)c1C [Compound 382] | 10 | 0 | – | 0 | 0 | 20 | – | 0 | – | 50 | 40 | 0 | – | – | – | – | – | – | – | – |
| COc1cccc2c1C(=O)N(c1cc(N(COC(=O)C(C)(C)C)S(=O)(=O)Cl)c(C)cc1C)C2 [Compound 413] | 0 | 0 | – | 70 | – | 60 | – | 0 | – | 10 | 90 | 0 | – | – | – | – | 90 | – | – | – |
| Cc1cc(C)c(N2Cc3cccc(C)c3C2=O)cc1NS(=O)(=O)Cl [Compound 408] | 65 | 90 | – | 0 | – | 40 | – | 90 | – | 90 | 90 | 90 | – | – | – | – | 70 | – | – | – |
| CCc1cc(C)c(N(COC(=O)C(C)(C)C)S(=O)(=O)C(F)(F)F)cc1C1=NOC2CCCC12 (stereo not drawn) [Compound 378] | 10 | 0 | 10 | 0 | 20 | 0 | 30 | 0 | 30 | – | – | – | – | – | – | – | – | – | – | – |
| Cc1c(NS(=O)(=O)C(F)(F)F)cc(C(=O)N2CCSCC2)c(C)c1C [Compound 283] | 0 | – | 90 | 30 | 90 | – | 80 | – | 30 | – | – | – | – | – | – | – | – | 80 | 30 | 10 |
